Experimental findings from PMC10180065, “Mechanistic Studies of Arene–Ruthenium(II) Complexes with Carbothioamidopyrazoles as Alternative Cancer Drugs” (Molecules, 2023) are described below.

The structures appear in SMILES notation.

In one data set the test system is HT29. As to the kind of experiment: MTT cytotoxicity, HT29. The class given is cell-based, human. Conditions: 48 h incubation, read-out: Cytotoxic effect, IC50. The protocol: (§1) Cytotoxicity was evaluated against fifteen adherent human cancer cell lines using the MTT test: colorectal adenocarcinoma cells Caco2 (ATCC® HTB-37™), colorectal adenocarcinoma cells HT29 (ATCC® HTB-38™), colon colorectal carcinoma HCT116 (ATCC® CCL-247™), colon adenocarcinoma COLO205 (ATCC® CCL-222™), colorectal adenocarcinoma SW620 (ATCC® CCL-227™), colorectal adenocarcinoma grade IV LoVo (ATCC® CCL-229™), hepatocellular carcinoma Hep 3b (ATCC® HB-8064™), endometrium adenocarcinoma HEC1A (ATCC® HTB-112™), Ishikawa (99040201; Sigma–Aldrich Sigma, St. Louis, MO, USA), cervical adenocarcinoma cells HeLa (ATCC® CCL-2™), lung epithelial carcinoma A549 (ATCC® CRM-CCL-185™), breast epithelial adenocarcinoma cell positive for estrogen and progesterone receptors MCF7 (ATCC® HTB-22™) and negative for expression of estrogen receptor HCC38 (ATCC® CRL-2314™), acute promyelocytic leukemia HL-60 (ATCC® CCL-240™), skin melanoma WM115 (ATCC® CRL-1676™), and 1 suspension cancer cell line: acute lymphoblastic leukemia NALM6 (purchased from the German Collection of Microorganisms and Cell Cultures). HT29, NALM6, HCC-38 and HL-60 cells were cultured in RPMI 1640 medium (Thermo Fisher Scientific, Waltham, MA, USA) supplemented with 10% fetal bovine serum and antibiotic (gentamicin 25 μg ml^−1) (Gibco, Grand Island, New York, NY, USA). For the remaining tumor cell lines, Dulbecco’s minimal essential medium (DMEM, Lonza, Visp, Switzerland) supplemented with 10% fetal bovine serum and antibiotic instead of RPMI 1640 was used. In addition, Human Microvascular Endothelial Cells (HMEC1), which were obtained from the American Type Culture Collection (Manassas, VA, USA), were used as a model of normal cells. HMEC-1 were cultured in MCDB131 medium (Corning Life Sciences, Corning, NY, USA), supplemented with 10% fetal bovine serum, 10 ng/mL Epidermal Growth Factor (Millipore, Burlington, MA, USA) and 10 mM glutamine (Corning Life Sciences). All cells were grown at 37 °C in humidified atmosphere of 5% CO2 in air. The exponential growth of cells was maintained by regular passaging at 90% confluence three times a week using 0.025% trypsin/EDTA (Gibco, Grand Island, New York, NY, USA).
(§2) The cytotoxicity was tested by a standard MTT [3-(4,5-dimethylthiazol-2-yl)-2,5-diphenyltetrazolium bromide] (Sigma, St. Louis, MO, USA) microplate cell viability assay. The anticancer activity of the investigated compounds was evaluated in vitro on the basis of their ability to inhibit the proliferation of various cancer cells. Exponentially growing cells were seeded a day before the experiment into a 96-well microplate (Nunc, Roskilde, Denmark) at a density up to 6–8 × 10^3 cells/mL (depending on the cell line) and exposed to the test compounds at a wide range of concentrations for 48 h. Subsequently, various concentrations of the studied compounds (10^−7–10^−5 M) freshly prepared in DMSO (final concentration of <0.1% DMSO) and diluted with complete culture medium were added. After 48 h incubation, the cells were immediately subjected to a cell viability assay. At this time point, the number of viable cells in each well was estimated by the MTT test. Briefly, 50 µL (5 mg/mL final concentration) of MTT was added to each microplate well. This procedure was then followed by a three- to four-hour incubation at 37 °C. After incubation, MTT solution was replaced with 100 µL DMSO/well, which solubilized the formazan crystals formed by the dehydrogenases of metabolically active cells. Purple formazan absorbance was measured spectrophotometrically at 570 nm.
On to `Cc1cc(C)n(C(N)=S)n1.Cc1ccc(C(C)C)cc1.[Cl-].[Cl][Ru+]` [2a], for which the IC50 is 111 ± 4.9 µM.

The next data set concerns Colo205. The experiment in a line: MTT cytotoxicity, Colo205. The class given is cell-based, human. To be noted: 48 h incubation, read-out: Cytotoxic effect, IC50. The procedure:
as §1, §2
With `Cc1cc(C)n(C(N)=S)n1.Cc1ccc(C(C)C)cc1.[Cl-].[Cl][Ru+]` [2a], the IC50 is 110 ± 6.7 µM.

A further data set has as its system SW620. The experiment in a line: MTT cytotoxicity, SW620. It counts as cell-based, human. To be noted: 48 h incubation, read-out: Cytotoxic effect, IC50. The protocol:
as §1, §2
Take `Cc1cc(C)n(C(N)=S)n1.Cc1ccc(C(C)C)cc1.[Cl-].[Cl][Ru+]` [2a]: the IC50 amounted to 118 ± 6.1 µM.

A further data set has as its system LoVo. The experiment in a line: MTT cytotoxicity, LoVo. The class given is cell-based, human. Conditions: 48 h incubation, read-out: Cytotoxic effect, IC50. The protocol: as §1, §2
Turning to `Cc1cc(C)n(C(N)=S)n1.Cc1ccc(C(C)C)cc1.[Cl-].[Cl][Ru+]` [2a], the IC50 is greater than 200 µM.

The test system of another data set is Caco2. As to the kind of experiment: MTT cytotoxicity, Caco2. It counts as cell-based, human. To be noted: 48 h incubation, read-out: Cytotoxic effect, IC50. The protocol: as §1, §2
For the molecule `Cc1cc(C)n(C(N)=S)n1.Cc1ccc(C(C)C)cc1.[Cl-].[Cl][Ru+]` [2a], the IC50 was greater than 200 µM.

A further data set has as its system Hep 3b. As to the kind of experiment: MTT cytotoxicity, Hep 3b. It counts as cell-based, human. To be noted: 48 h incubation, read-out: Cytotoxic effect, IC50. The protocol:
as §1, §2
With `Cc1cc(C)n(C(N)=S)n1.Cc1ccc(C(C)C)cc1.[Cl-].[Cl][Ru+]` [2a], the IC50 is greater than 200 µM.

In another data set the test system is HEC1A. The experiment in a line: MTT cytotoxicity, HEC1A. It counts as cell-based, human. To be noted: 48 h incubation, read-out: Cytotoxic effect, IC50. The procedure:
as §1, §2
As for `Cc1cc(C)n(C(N)=S)n1.Cc1ccc(C(C)C)cc1.[Cl-].[Cl][Ru+]` [2a], the IC50 was determined as 62.3 ± 0.9 µM.

The next data set relates to Ishikawa. As to the kind of experiment: MTT cytotoxicity, Ishikawa. It counts as cell-based, human. Conditions: 48 h incubation, read-out: Cytotoxic effect, IC50. The protocol:
as §1, §2
For the molecule `Cc1cc(C)n(C(N)=S)n1.Cc1ccc(C(C)C)cc1.[Cl-].[Cl][Ru+]` [2a], the half-inhibitory concentration (IC50) came to 90.7 ± 3.7 µM.

A further data set has as its system Hela. The experiment in a line: MTT cytotoxicity, Hela. The class given is cell-based, human. To be noted: 48 h incubation, read-out: Cytotoxic effect, IC50. The procedure:
as §1, §2
Turning to `Cc1cc(C)n(C(N)=S)n1.Cc1ccc(C(C)C)cc1.[Cl-].[Cl][Ru+]` [2a], the IC50 was greater than 200 µM.

The test system of the next data set is A549. The experiment in a line: MTT cytotoxicity, A549. It counts as cell-based, human. Conditions: 48 h incubation, read-out: Cytotoxic effect, IC50. The protocol:
as §1, §2
In the case of `Cc1cc(C)n(C(N)=S)n1.Cc1ccc(C(C)C)cc1.[Cl-].[Cl][Ru+]` [2a], the IC50 was 121 ± 3.6 µM.

In another data set the test system is HCC38. The experiment in a line: MTT cytotoxicity, HCC38. It counts as cell-based, human. Conditions: 48 h incubation, read-out: Cytotoxic effect, IC50. The protocol: as §1, §2
`Cc1cc(C)n(C(N)=S)n1.Cc1ccc(C(C)C)cc1.[Cl-].[Cl][Ru+]` [2a]: the IC50 was 84.4 ± 1.1 µM.

For another data set, the system named is MCF7. The experiment in a line: MTT cytotoxicity, MCF7. It counts as cell-based, human. To be noted: 48 h incubation, read-out: Cytotoxic effect, IC50. The procedure:
as §1, §2
In the case of `Cc1cc(C)n(C(N)=S)n1.Cc1ccc(C(C)C)cc1.[Cl-].[Cl][Ru+]` [2a], the IC50 was greater than 200 µM.

The subject of a further data set is WM115. The experiment in a line: MTT cytotoxicity, WM115. It counts as cell-based, human. To be noted: 48 h incubation, read-out: Cytotoxic effect, IC50. The procedure:
as §1, §2
Regarding `Cc1cc(C)n(C(N)=S)n1.Cc1ccc(C(C)C)cc1.[Cl-].[Cl][Ru+]` [2a], the 50% inhibitory concentration (IC50) is 60.2 ± 6.3 µM.

For a further data set, the system named is NALM6. The experiment in a line: MTT cytotoxicity, NALM6. The class given is cell-based, human. To be noted: 48 h incubation, read-out: Cytotoxic effect, IC50. The protocol: as §1, §2
`Cc1cc(C)n(C(N)=S)n1.Cc1ccc(C(C)C)cc1.[Cl-].[Cl][Ru+]` [2a]: the IC50 is 51.6 ± 5.7 µM.

Another data set deals with HL60. The experiment in a line: MTT cytotoxicity, HL60. To be noted: 48 h incubation, read-out: Cytotoxic effect, IC50. The class given is cell-based, human. The protocol:
as §1, §2
`Cc1cc(C)n(C(N)=S)n1.Cc1ccc(C(C)C)cc1.[Cl-].[Cl][Ru+]` [2a]: the IC50 turned out to be 88.9 ± 6.1 µM.

In the next data set the test system is human microvascular endothelial cell line HMEC1. As to the kind of experiment: MTT cytotoxicity, normal endothelial cells HMEC1. The class given is cell-based. Conditions: HMEC1 normal endothelial cells, 48 h incubation, read-out: Cytotoxic effect, IC50. The protocol:
as §1, §2
With `Cc1cc(C)n(C(N)=S)n1.Cc1ccc(C(C)C)cc1.[Cl-].[Cl][Ru+]` [2a], the IC50 was 156 ± 4.9 µM.

The data set is the same for the next values; noted with them: HMEC-1 vs cancer cells.
Take `Cc1cc(C)n(C(N)=S)n1.Cc1ccc(C(C)C)cc1.[Cl-].[Cl][Ru+]` [2a]: the “IC50 for HMEC-1 higher than for cancer cells (selectivity)” value is 3–5 times.

Test system in another data set: not listed separately
As to the kind of experiment: Lipophilicity by RP-TLC. Also noted: key: RM = log(1/Rf − 1), Rf = a/b. It counts as physicochemical. Conditions: eluent AcCN: H2O at 30–70% v/v, 22 °C. The protocol:
All the experimental solutions of standard substances (0.1 mg/mL) were prepared by dissolving ligands (1a–1d) or ruthenium complexes (2a/3a–2d/3d) in ethanol. Commercially-available octadecyl-modified silica aluminum sheets (20 × 20 cm) were cut into 5 × 10 cm plates. The plates were manually spotted with 1.0 μL of freshly prepared solutions using automatic pipets, 5 mm from each edge. The chromatograms for all compounds (1a/2a/3a–1d/2d/3d) were developed using a horizontal developing chamber and the solvent migration distance was about 4.5 cm. The plates were visually inspected under UV light at 254 nm. Each zone was clearly marked and its distance was manually measured. The RP-TLC analyses of lipophilicity were performed at ambient temperature (22 °C). In this experiment, all measurements were performed in triplicate and the obtained results were used in further calculations. The acetonitrile and water mixtures for ligands 1a–1d and arene–ruthenium(II) complexes 2a/3a–2d/3d were used as mobile phases, with […] content increasing in the range of 30–70% v/v, at 5% intervals. Values of the chromatographic retention coefficient Rf (as shown Formula (1)) and RM (as shown Formula (2)), based on received chromatograms, were calculated and converted as follows:(1) Rf=a/b (2) RM=log1/Rf−1
Regarding `Cc1cc(C)n(C(N)=S)n1.Cc1ccc(C(C)C)cc1.[Cl-].[Cl][Ru+]` [2a], the “Lipophilicity, RM” value was determined as 2.40.
